In ChEMBL document CHEMBL1201862, “PubChem BioAssay data set” (2004):
Activity calls are given as the source filed them. Rule as the data show it: actives have a measured IC50 and inactives only a lower limit.

Target: Envelope glycoprotein gp160 (Human immunodeficiency virus 1, UniProt Q6QLK5)
Assay: cell-free HIV fusion peptide-binding blockers – biochemical, uHTS, fluorescence dequenching, […] (AID 1986)

Chain of Envelope glycoprotein gp160 (Q6QLK5 whole entry, the tested form may be a part): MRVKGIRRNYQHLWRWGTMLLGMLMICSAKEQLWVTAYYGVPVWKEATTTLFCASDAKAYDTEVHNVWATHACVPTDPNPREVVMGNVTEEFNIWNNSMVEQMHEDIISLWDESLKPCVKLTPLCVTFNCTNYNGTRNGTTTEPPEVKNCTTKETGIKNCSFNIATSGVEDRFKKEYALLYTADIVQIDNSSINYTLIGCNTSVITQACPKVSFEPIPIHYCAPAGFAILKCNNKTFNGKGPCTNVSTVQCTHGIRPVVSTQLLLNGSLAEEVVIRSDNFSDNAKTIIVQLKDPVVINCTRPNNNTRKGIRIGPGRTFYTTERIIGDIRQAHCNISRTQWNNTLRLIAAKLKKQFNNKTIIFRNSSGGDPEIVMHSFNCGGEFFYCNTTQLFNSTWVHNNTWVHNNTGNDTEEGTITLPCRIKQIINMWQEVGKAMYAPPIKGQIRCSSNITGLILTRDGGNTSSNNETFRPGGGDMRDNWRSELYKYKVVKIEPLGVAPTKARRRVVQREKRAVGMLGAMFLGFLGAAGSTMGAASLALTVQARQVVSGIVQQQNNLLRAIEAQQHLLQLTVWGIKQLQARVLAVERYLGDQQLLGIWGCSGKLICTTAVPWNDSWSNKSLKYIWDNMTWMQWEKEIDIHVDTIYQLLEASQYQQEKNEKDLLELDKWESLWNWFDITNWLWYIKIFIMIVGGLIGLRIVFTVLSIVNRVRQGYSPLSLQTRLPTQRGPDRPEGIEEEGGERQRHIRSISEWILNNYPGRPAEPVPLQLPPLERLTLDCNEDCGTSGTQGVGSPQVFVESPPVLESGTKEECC

CCOC(=O)c1sc2nc3c(SCCC(=O)O)cc(C(=O)c4cc(OC)ccc4O)cn3c(=O)c2c1C
IC50: 16 µM (active)
